Results from patent US6225332A, “Compositions containing histamine H2 agonists and methods of use in treating allergy and inflammation” (priority 1998, dated 2001).

Experiments:
human skin mast cells = settings: cited from earlier work
[1] = human, in vivo; cited from earlier work
[2] = test system: mast cells obtained from bronchoalveolar lavage fluid; settings: 100 μM; human trials; cited from earlier work
rodent mast cell = settings: cited from earlier work
[3] = test system: human conjunctival mast cells; experiment: Miller Test: inhibition of anti-IgE-induced histamine release (mast cell stabilization assay); assay type: cell-based; settings: for inhibition at 10 µM / inhibition at 100 µM: * p < 0.05, Dunnett's t-test (dimaprit only); for inhibition at 1000 µM: * p < 0.05, Dunnett's t-test (both compounds)
From the text: While mast cells exist in various tissues and species, there is considerable mast cell heterogeneity within these different sources. Therefore, in order to provide compounds of the present invention which are specific for human conjunctival mast cells, drug compounds need to be tested for inhibition of human conjunctival mast cell degranulation using human conjunctival mast cells. Such efficacy can be determined by using the method described in U.S. Pat. No. 5,360,720 (Miller et al.) and in Miller, et al., "Human conjunctival mast cell responses in vitro to various secretagogues," Ocular Immunology and Inflammation, volume 4, issue 1, pages 39-49 (1996) (the "Miller Test"), the entire contents of the forgoing patent and article are incorporated herein by reference.
The Miller Test is generally performed by the following protocol:
Human conjunctival tissue mast cells are isolated from post-mortem tissue donors obtained within 8 hours of death by various eye banks and transported in Dexsole corneal preservation medium. Tissues are then enzymatically digested by repeated exposure (30 minutes at 37° C.) to collagenase (Type IV) and hyaluronidase (Type I-S) (2 times with 200 U […] each/gram tissue, then 2-4 times with 2000 U each/gram tissue) in Tyrode's buffer containing 0.1% gelatin. Each digestion mixture is filtered over Nitex® cloth (100 µm mesh) and washed with an equal volume of buffer. Filtrates are centrifuged at 825×g (7 mininutes). Pellets are resuspended in buffer then combined for enrichment over a […] Percoll® cushion. The enriched pellet is then washed and resuspended in supplemented RPMI 1640 medium for equilibration at 37° C.
The preparations containing the mast cells are then placed in a culture medium, preferably supplemented RPMI 1640, and allowed to equilibrate at about 30°-37° C. for a minimum of about 40 hours.
After equilibrating for a minimum of about 40 hours, the cells may be harvested from the culture (for example, by gentle flushing utilizing pasteur pipettes), pooled and centrifuged.
Cell pellets may then be resuspended in buffer and viability and mast cell number determined by well known methods. The conjunctival mast cells are now prepared for use in mast cell stabilization assays.
All test drugs are placed into solution immediately prior to use. Generally, each compound is dissolved in Tyrode's buffer containing 0.1% gelatin and diluted to an appropriate concentration.
Cells are harvested from the culture plate and counted for viability (trypan blue exclusion) and mast cell number (toluidine blue O). Mast cells (5000/tube; 1 milliliter ("mL," final volume) are then challenged (37° C.) for 15 minutes with goat-anti-human IgE (10 μg/mL) following treatment (1 or 15 minutes; 37° C.) with test drug or Tyrode's buffer. Total and non-specific release controls are exposed to 0.1% Triton X-100 and goat IgG (10 μg/mL), respectively. The reaction was terminated by centrifugation (500×g, 4° C., 10 minutes). Supernatants are stored at -20° C. until analyzed for histamine content by radioimmunoassay ("RIA").
The IC50 of each compound (concentration at which 50% of the histamine release was inhibited, as compared to control) was then calculated.
The H2 agonists, dimaprit and amthamine, were tested in the Miller Test, as described in Example 1, above. Table I and FIG. 1 illustrate the efficacy of dimaprit and amthamine on the inhibition of histamine release from human conjunctival mast cells.

SMILES | inhibition of histamine release from human skin mast cells (human skin mast cells) | irritation / side effects [1] | inhibition of mast cells obtained from bronchoalveolar lavage fluid [2] | inhibition of rodent mast cell degranulation (rodent mast cell) | inhibition at 0.1 µM ([3]; 0.1 μM) [%] | inhibition at 1 µM [3] [%] | inhibition at 10 µM [3] [%] | inhibition at 100 µM [3] [%] | inhibition at 1000 µM [3] [%] | inhibition at 10000 µM ([3]; 10,000 μM, * p < 0.05, Dunnett's t-test) [%]
O=C(O)c1cc(=O)c2c(OCC(O)COc3cccc4oc(C(=O)O)cc(=O)c34)cccc2o1 [Disodium cromoglycate] | not inhibited at all | irritating to some patients | inhibited mast cells obtained from bronchoalveolar lavage fluid | shown to inhibit rodent mast cell degranulation | – | – | – | – | – | –
Cc1nc(N)sc1CCN [amthamine] | – | – | – | – | 11 | 3.6 ± 3.9 | 7.3 ± 6.5 | 9.9 ± 8.6 | 60.5 ± 6.2 | –
CN(C)CCCSC(=N)N [dimaprit] | – | – | – | – | – | 10.1 ± 4.2 | 14.4 ± 9.3 | 35 ± 3.5 | 75.9 ± 3.5 | 83.6 ± 0.9
